Consider twelve compounds from paper PMC6471197, “Biological Activity and In Silico Study of 3-Modified Derivatives of Betulin and Betulinic Aldehyde” (International Journal of Molecular Sciences, 2019).

Type in all cases: cell-based, human
The subject of assay [1] is MV-4-11 (biphenotypic B myelomonocytic leukaemia) cell line. The assay is described as follows: MTT antiproliferative assay on MV-4-11 cells. The following applies: for IC50: Homo sapiens, MV4-11. The protocol:
(§1) The applied human cell lines such as MV-4-11 (biphenotypic B myelomonocytic leukaemia), A549 (lung adenocarcinoma), Du-145 (prostate), Hs294T (melanoma), MCF-7 (breast adenocarcinoma) and MCF-10A (normal mammary gland) were obtained from the American Type Culture Collection (ATCC, Rockville, MD, USA). The all cell lines are maintained at the Cell Culture Collection of the Institute of Immunology and Experimental Therapy (Wrocław, Poland). The cells were plated in 96-well plates (Sarstedt, Newton, MA, USA) at a density of 1 × 10^4 cells per well in 100 µL of appropriate culture medium overnight. Biphenotypic B myelomonocytic leukaemia (MV-4-11) cells were cultured in RPMI 1640 medium (Gibco, Scotland, UK) with GlutaMAX (Thermo-Fisher Scientific, Warsaw, Poland) adjusted to contain 1.0 mM sodium pyruvate (Sigma-Aldrich, Chemie GmbH, Steinheim, Germany). Human lung adenocarcinoma (A549) cells were cultured in mixture RPMI 1640 and Opti-MEM medium (Gibco, Scotland, UK) supplemented with GlutaMAX (ThermoFisher Scientific, Warsaw, Poland) and 2mM L-glutamine adjusted to contain 1.0 mM sodium pyruvate. Human prostate (Du-145) and human breast adenocarcinoma (MCF-7) cells were cultured in Eagle medium (IIET, Wrocław, Poland), supplemented with 2 mM L-glutamine adjusted to contain 1.0 mM sodium pyruvate. Human melanoma (Hs294T) cells were cultured in Dulbecco medium (Gibco, Scotland, UK) supplemented with 2 mM L-glutamine. The normal human mammary gland cells (MCF-10A) were cultured in Ham’s F-12 medium containing 2 mM L-glutamine, 5% horse serum, epidermal growth factor EGF (100 μL/100 mL of medium), hydrocortisone (1 mL/ 100 mL of medium), insulin (100 μL/100 mL of medium) and cholera toxin (0.1 mL/100 mL of medium). All applied culture media except MCF-10A were supplemented with 10% of FBS (MV-4-11 cultured with FBS derived from Sigma-Aldrich, Chemie GmbH, Steinheim, Germany, the other cell lines FBS HyClone Thermo-Fisher Scientific, Warsaw, Poland) and streptomycin (100 µg/mL), penicillin (100 U/mL) (both from Polfa, Tarchomin, Poland). The tested cell lines were grown at 37 °C in humid atmosphere saturated with 5% CO2. In our studies were used two assays for determination the cytotoxic activity in vitro of triterpene derivatives. By dissolving 1 mg of each tested compound in 100 µL of DMSO, stock solutions at a 10 mg/mL were obtained. Next, the stock solutions were diluted in appropriate culture medium to reach the required concentrations of compounds ranging from 0.1 to 100 µg/mL. The MTT assay was used for the cytotoxicity screening against biphenotypic B myelomonocytic leukaemia (MV-4-11). The SRB assay was performed for adherent cells such as A549, Du-145, Hs294T, MCF-7 and MCF-10A. Both assays were carried as described by Wietrzyk et al.. The triterpenes in given concentration were examined in triplicates in each experiment, which was repeated 3 times. The results of anticancer activity in vitro were presented as an IC50 in µM. Cisplatin and betulin 1 were used as reference substances.
On the technique in general: Tetrazolium dyes change colour on reduction, which living cells bring about.

In assay [2] the test system is A549 (lung adenocarcinoma). The assay is described as follows: SRB antiproliferative assay on A549 cells. The settings on record: Homo sapiens, A549. The protocol:
as §1

A further assay has as its system Du-145 (prostate). The assay is described as follows: SRB antiproliferative assay on Du-145 cells. The following applies: Homo sapiens, DU-145; SRB assay. The protocol: as §1
The next assay deals with Hs294T (melanoma). The assay is described as follows: SRB antiproliferative assay on Hs294T cells. The settings on record: Homo sapiens, Hs 294T; SRB assay. Here is the method:
as §1

Assay [3] relates to MCF-7 (breast adenocarcinoma). Kind of assay: SRB antiproliferative assay on MCF-7 cells. The settings on record: Homo sapiens, MCF7; SRB assay. The protocol:
as §1
(Sulforhodamine B stains cellular protein and so reports cell mass.)

The subject of assay [4] is MCF-10A (normal mammary gland). The assay is described as follows: SRB antiproliferative assay on MCF-10A cells. The following applies: Neg = negative in the concentration used. The protocol:
as §1

Where [5] appears, read: MTT assay, Neg = negative in the concentration used.

A word on the IC50: it is the concentration needed to halve the response being measured. Take `C#CCOC(=O)O[C@H]1CC[C@@]2(C)C(CC[C@]3(C)C2CCC2C4C(C(=C)C)CC[C@]4(CO)CC[C@]23C)C1(C)C` (stereo partly shown) [Compound 13, 3-Propargyloxycarbonylbetulin]: the 50% inhibitory concentration (IC50) in assay [1] (setting [5]) stood at 7.4 ± 1.7 µM; in assay [2], 14.9 ± 2.5 µM; with Du-145 (prostate), 95.1 ± 16.8 µM; with Hs294T (melanoma), 82.7 ± 8.4 µM; in assay [3], 28.9 ± 4.6 µM. The “Antiproliferative Activity IC50 MCF-10A” value in assay [4] is on record as “Neg”.
`C#CCCOC(=O)O[C@H]1CC[C@@]2(C)C(CC[C@]3(C)C2CCC2C4C(C(=C)C)CC[C@]4(CO)CC[C@]23C)C1(C)C` (stereo partly shown) [Compound 14, 3-(3-Butynyloxycarbonyl)betulin]: the half-maximal inhibitory concentration (IC50) stood at 8.9 ± 0.9 µM in assay [1] (setting [5]); 33.8 ± 2.8 µM in assay [2]; 126 ± 13.2 µM with Du-145 (prostate); 164 ± 15.8 µM with Hs294T (melanoma); 39.2 ± 6.9 µM in assay [3]. Also, the “Antiproliferative Activity IC50 MCF-10A” value in assay [4] is given as “Neg”.
In assay [1] (setting [5]), `C=C(C)C1CC[C@]2(C=O)CC[C@]3(C)C(CCC4[C@@]5(C)CC[C@H](OC(=O)CC)C(C)(C)C5CC[C@]43C)C12` (stereo partly shown) [Compound 15, 3-Propanoylbetulinic aldehyde] came in with an IC50 of 71.8 ± 22.9 µM.
On to `C=CC(=O)O[C@H]1CC[C@@]2(C)C(CC[C@]3(C)C2CCC2C4C(C(=C)C)CC[C@]4(C=O)CC[C@]23C)C1(C)C` (stereo partly shown) [Compound 16, 3-(2-Propenoyl)betulinic aldehyde], for which the IC50 is 5.8 ± 1.8 µM in assay [1] (setting [5]); 15.1 ± 5 µM in assay [2]; 67.1 ± 4.6 µM in the assay with Du-145 (prostate); 74.4 ± 7.3 µM with Hs294T (melanoma); 60.4 ± 4.4 µM in assay [3]; 113 ± 11.7 µM in assay [4] (Homo sapiens, MCF-10A). The “fold more potent than 3-acetylbetulinic aldehyde 3 against MV-4-11” value in assay [1] (MV-4-11 cells) is 6 fold.
For `C=C(C)C1CC[C@]2(C=O)CC[C@]3(C)C(CCC4[C@@]5(C)CC[C@H](OC(=O)C#CC6CC6)C(C)(C)C5CC[C@]43C)C12` (stereo partly shown) [Compound 17, 3-(3-Cyclopropyl-2-propynoyl)betulinic aldehyde], the midpoint of inhibition in assay [1] (setting [5]), the IC50, lay at 86.7 ± 42.8 µM.
Take `C=C(C)C1CC[C@]2(C=O)CC[C@]3(C)C(CCC4[C@@]5(C)CC[C@H](OC(=O)C#Cc6ccccc6)C(C)(C)C5CC[C@]43C)C12` (stereo partly shown) [Compound 18, 3-Phenylpropynoylbetulinic aldehyde]: in assay [1] (setting [5]), the “MV-4-11 IC50” value is “Neg”.
`C=C(C)C1CC[C@]2(C=O)CC[C@]3(C)C(CCC4[C@@]5(C)CC[C@H](OC(=O)C#CC)C(C)(C)C5CC[C@]43C)C12` (stereo partly shown) [Compound 19, 3-(2-Butynoyl)betulinic aldehyde] registered an IC50 in assay [1] (setting [5]) of 35.9 ± 4.9 µM.
The same measure, in the same setting: in the case of `C=C(C)C1CC[C@]2(C=O)CC[C@]3(C)C(CCC4[C@@]5(C)CC[C@H](OC(=O)OCC)C(C)(C)C5CC[C@]43C)C12` (stereo partly shown) [Compound 20, 3-Ethoxycarbonylbetulinic aldehyde] it was 25.1 ± 7.2 µM.
Same read-out and setting: in the case of `C=C(C)C1CC[C@]2(C=O)CC[C@]3(C)C(CCC4[C@@]5(C)CC[C@H](OC(=O)OCCC)C(C)(C)C5CC[C@]43C)C12` (stereo partly shown) [Compound 21, 3-Propoxycarbonylbetulinic aldehyde] it was 80.2 ± 14.4 µM; in that of `C=CCOC(=O)O[C@H]1CC[C@@]2(C)C(CC[C@]3(C)C2CCC2C4C(C(=C)C)CC[C@]4(C=O)CC[C@]23C)C1(C)C` (stereo partly shown) [Compound 22, 3-Allyloxycarbonylbetulinic aldehyde], 38.3 ± 4.6 µM; in that of `C#CCOC(=O)O[C@H]1CC[C@@]2(C)C(CC[C@]3(C)C2CCC2C4C(C(=C)C)CC[C@]4(C=O)CC[C@]23C)C1(C)C` (stereo partly shown) [Compound 23, 3-Propargyloxycarbonylbetulinic aldehyde], 30 ± 6.1 µM.
Regarding `C#CCCOC(=O)O[C@H]1CC[C@@]2(C)C(CC[C@]3(C)C2CCC2C4C(C(=C)C)CC[C@]4(C=O)CC[C@]23C)C1(C)C` (stereo partly shown) [Compound 24, 3-(3-Butynyloxycarbonyl)betulinic aldehyde], half-maximal inhibition in assay [1] (setting [5]) (IC50) was put at 28.3 ± 7.4 µM.
